Test results from patent publication US20080103169A1, “COMPOSITIONS COMPRISING ACID LABILE PROTON PUMP INHIBITING AGENTS, AT LEAST ONE OTHER […] ACTIVE AGENT AND METHODS OF USING SAME” (priority 2006, published 2008).
Like-named read-outs stand apart in the source and are kept apart here. One block for each molecule: values may come before it.

Key:
[1] = PPI half-life (serum concentration profile), n of 1 studies; type: in vivo, human; conditions: for half-life: human, serum, Day 1, n of 1
Text: The measure of a PPIs activity can be predicted by looking at AUC above 1 micromole. The elimination rate (Kel) is the only variable that can be changed to increase the AUC for a given PPI. Half-life=0.693/Kel
These are all n of 1 studies all performed on the same subject. (Unless otherwise stated, 1.68 g NaHCO3 was used as buffering agent)

H+, K+-ATPase = target: T1, H+, K+-ATPase (Rattus norvegicus, UniProt P09626); conditions: cited from earlier work
T1 construct: host or cells: rats (in vivo treatment; endogenous gastric enzyme)
T1 sequence (P09626 whole entry): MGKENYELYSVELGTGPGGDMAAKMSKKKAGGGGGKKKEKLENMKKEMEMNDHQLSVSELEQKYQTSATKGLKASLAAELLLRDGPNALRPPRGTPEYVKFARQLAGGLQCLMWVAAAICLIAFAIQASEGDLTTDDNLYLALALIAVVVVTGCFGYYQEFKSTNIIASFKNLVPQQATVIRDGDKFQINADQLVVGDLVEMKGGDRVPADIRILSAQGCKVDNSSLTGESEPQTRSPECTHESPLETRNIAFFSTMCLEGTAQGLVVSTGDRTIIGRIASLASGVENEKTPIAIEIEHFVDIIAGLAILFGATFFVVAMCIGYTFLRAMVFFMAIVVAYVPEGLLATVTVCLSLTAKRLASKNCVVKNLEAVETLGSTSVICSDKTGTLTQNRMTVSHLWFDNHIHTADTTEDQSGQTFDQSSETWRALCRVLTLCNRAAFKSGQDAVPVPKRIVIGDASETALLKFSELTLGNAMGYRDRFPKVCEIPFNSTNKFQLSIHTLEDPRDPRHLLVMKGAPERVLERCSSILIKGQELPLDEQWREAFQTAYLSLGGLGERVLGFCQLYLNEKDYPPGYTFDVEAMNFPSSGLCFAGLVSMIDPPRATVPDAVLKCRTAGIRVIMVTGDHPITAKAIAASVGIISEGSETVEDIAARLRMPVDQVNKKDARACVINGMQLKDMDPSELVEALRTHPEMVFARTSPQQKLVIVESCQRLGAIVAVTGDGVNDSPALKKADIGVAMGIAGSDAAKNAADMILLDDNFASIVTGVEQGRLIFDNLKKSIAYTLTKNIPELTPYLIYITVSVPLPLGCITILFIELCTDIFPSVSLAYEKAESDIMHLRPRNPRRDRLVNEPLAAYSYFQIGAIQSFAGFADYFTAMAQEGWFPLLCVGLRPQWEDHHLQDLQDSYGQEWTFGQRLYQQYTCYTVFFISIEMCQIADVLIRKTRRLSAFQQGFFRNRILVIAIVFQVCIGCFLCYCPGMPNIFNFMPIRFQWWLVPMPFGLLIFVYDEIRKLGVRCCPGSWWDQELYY
T1 sequence (P18598 whole entry partner): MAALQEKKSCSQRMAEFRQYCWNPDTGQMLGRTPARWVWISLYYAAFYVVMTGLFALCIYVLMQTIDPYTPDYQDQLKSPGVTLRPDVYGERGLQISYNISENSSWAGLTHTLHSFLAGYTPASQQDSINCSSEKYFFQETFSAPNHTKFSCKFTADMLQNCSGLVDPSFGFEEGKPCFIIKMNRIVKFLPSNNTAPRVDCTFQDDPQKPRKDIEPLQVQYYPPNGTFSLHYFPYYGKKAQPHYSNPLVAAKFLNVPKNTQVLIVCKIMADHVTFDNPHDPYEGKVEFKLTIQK

[2] = oral, 120 mg, IR 120 mg given alone
[3] = oral, given as OME-IR 120 mg+Tenatoprazole IR 40 mg+Cimetidine 200 mg
[4] = oral, given as OME-IR 120 mg+Tenatoprazole IR 40 mg

- half-life ([1]; 40 mg, 40 mg given alone): 1.4 h
Compound: COc1ccc2nc([S@@+]([O-])Cc3ncc(C)c(OC)c3C)[nH]c2c1 [esomeprazole]

- half-life ([1]; oral, given as OME-IR 80 mg+Lansoprazole IR 80 mg): 3.1 h
Compound: Cc1c(OCC(F)(F)F)ccnc1C[S+]([O-])c1nc2ccccc2[nH]1 (stereo not shown) [lansoprazole]

- half-life of omeprazole ([1]; administered with cimetidine (FIG. 11)): three
- half-life [1, 2]: 1.8 h
- half-life ([1]; oral, given as OME-IR 120 mg+Cimetidine 200 mg): 2.1 h
- half-life [1, 3]: 1.8 h
- half-life [1, 4]: 1.8 h
Compound: COc1ccc2[nH]c([S+]([O-])Cc3ncc(C)c(OC)c3C)nc2c1 (stereo not shown) [omeprazole, 5-methoxy-2-[[(4-methoxy-3,5-dimethyl-2-pyridinyl)methyl]sulfinyl]-1H benzimidazole]
- effect of omeprazole on H+, K+-ATPase activity (H+, K+-ATPase; rats pretreated with cimetidine, compared to control (no pretreatment)): much reduced effect
- effect of omeprazole on H+, K+-ATPase activity (H+, K+-ATPase; rats pretreated with secretogue carbachol): increased the effect of omeprazole

- half-life ([1]; oral, 40 mg, 40 mg given alone): 7 h
- half-life [1, 2]: 8.7 h
- half-life [1, 3]: 12.9 h
- half-life [1, 4]: 12.9 h
Compound: COc1ccc2[nH]c([S+]([O-])Cc3ncc(C)c(OC)c3C)nc2n1 (stereo not shown) [tenatoprazole, 5-methoxy-2-[[(4-methoxy-3,5-dimethyl-2-pyridyl)methyl]sulfinyl]imidazo[4,5-b]pyridine]
